Results taken from PMC4766629, “Biochemical and functional characterization of Plasmodium falciparum DNA polymerase δ” (Malaria Journal, 2016).
≈ marks a conversion by molar mass, not a printed value. Where two headings read alike, the source gives them in different places.

Experiments:
PfPolδ-cat = molecular target: T1, PfPolδ-cat (Plasmodium falciparum, UniProt P30315); assay: DNA polymerase assay, inhibitory effects of compounds on PfPolδ-cat activity; type: biochemical
T1 construct: The 3285-bp full-length PfPolδ-cat of P. falciparum K1 strain was successfully amplified and cloned; thioredoxin (N); His6 (C); made in house; host or cells: Escherichia coli LMG194
T1 sequence (P30315 whole entry): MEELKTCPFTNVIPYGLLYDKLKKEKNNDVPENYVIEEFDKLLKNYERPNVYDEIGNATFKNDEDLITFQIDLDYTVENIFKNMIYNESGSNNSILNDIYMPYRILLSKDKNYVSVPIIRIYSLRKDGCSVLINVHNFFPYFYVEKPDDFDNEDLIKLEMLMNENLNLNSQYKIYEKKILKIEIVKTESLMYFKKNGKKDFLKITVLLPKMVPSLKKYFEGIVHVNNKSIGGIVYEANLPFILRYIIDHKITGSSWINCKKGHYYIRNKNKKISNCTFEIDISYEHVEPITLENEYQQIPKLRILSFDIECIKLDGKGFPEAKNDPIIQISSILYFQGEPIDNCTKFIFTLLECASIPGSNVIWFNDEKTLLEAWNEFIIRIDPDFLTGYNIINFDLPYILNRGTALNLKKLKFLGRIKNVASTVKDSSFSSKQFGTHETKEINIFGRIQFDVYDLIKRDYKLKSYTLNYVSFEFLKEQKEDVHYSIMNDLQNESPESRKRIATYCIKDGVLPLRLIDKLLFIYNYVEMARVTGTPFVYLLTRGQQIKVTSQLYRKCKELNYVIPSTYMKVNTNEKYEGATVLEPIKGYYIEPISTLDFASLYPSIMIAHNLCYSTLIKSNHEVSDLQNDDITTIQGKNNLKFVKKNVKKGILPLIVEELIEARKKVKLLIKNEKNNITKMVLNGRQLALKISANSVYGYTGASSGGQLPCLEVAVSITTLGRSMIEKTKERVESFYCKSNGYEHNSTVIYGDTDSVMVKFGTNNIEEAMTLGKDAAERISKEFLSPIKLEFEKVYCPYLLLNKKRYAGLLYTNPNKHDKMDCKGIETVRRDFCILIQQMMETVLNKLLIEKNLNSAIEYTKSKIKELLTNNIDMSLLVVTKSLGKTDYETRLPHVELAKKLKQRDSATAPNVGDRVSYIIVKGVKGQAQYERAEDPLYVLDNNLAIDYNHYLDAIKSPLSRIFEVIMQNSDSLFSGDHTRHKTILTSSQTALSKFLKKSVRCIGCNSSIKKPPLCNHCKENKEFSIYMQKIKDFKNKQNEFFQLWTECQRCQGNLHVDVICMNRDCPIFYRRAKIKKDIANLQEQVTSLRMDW
Method: DNA polymerase activity was assayed using activated calf thymus DNA (CT-DNA) (Sigma-Aldrich, MA, USA) as substrate. DNA polymerase assay was conducted in a 50-μl reaction mixture containing 10 μg of activated CT-DNA, 20 mM potassium phosphate buffer pH 8, 10 mM MgCl2, 2 mM DTT, 10 μg BSA, 50 μM each of dGTP, dATP and dCTP, 1 μM dTTP, 2.5 μM [α-^32P]dTTP (800 Ci/mmol; PerkinElmer, MA, USA), and 42 nM PfPolδ-cat. After incubation for 1 h at 37 °C, the reactions were terminated by adding a 250-μl mixture of 20 mM EDTA, 0.1 mg/ml BSA and 100 μl of 50 % trichloroacetic acid (TCA), followed by sedimentation. The precipitate was then washed twice with 1 % TCA and [^32P]dTMP incorporation was measured in a 1450 MicroBeta® Trilux Liquid Scintillation Counter (Perkin Elmer). One unit of DNA polymerase activity is defined as the amount of enzyme that catalyzes the incorporation of 1 nmol of dTMP into DNA in 1 h at 37 °C.
Inhibitory activity of 11 compounds consisting of substrate and nucleotide analogs and potential active site occupiers of PfPolδ-cat were compared with known Pol δ inhibitors, aphidicolin and N-ethylmaleimide (NEM). Stock solution (6 mM) of aphidicolin was prepared in dimethylsulfoxide (DMSO) and that of NEM (400 mM) in absolute ethanol. Stock solutions (10 mM) of N^2-(4-butylphenyl)-2′-deoxyguanosine 5′-triphosphate (BuPdGTP), N^2-(4-butylphenyl)- 2′-deoxyguanosine 5′-(P^2,P^3-carbonyltriphosphonate) (BuPdGMPPCOP), N^2-ethyl-2′-deoxyguanosine 5′-[…] (EtdGTP), N^2-hexyl-2′-deoxyguanosine 5′-triphosphate (HexdGTP) and Acyclovir triphosphate (ACV-TP) were prepared in sterile distilled water, while those of 2-amino-4-chloro-6-(3,4-dichloroanilino)pyrimidine, 2-amino-4-chloro-6-(3,5-dichloroanilino)pyrimidine, N^2-(3,4-dichlorobenzyl)guanine (DCBG), N^2-(3-fluoro,4-chlorobenzyl)guanine, 3-(4-hydroxybutyl)-6-(3-ethyl-4-methylanilino)uracil (HB-EMAU), and 7-acetoxypentyl-(3,4-dichlorobenzyl)guanine (7-acetoxypentyl-DCBG) were prepared in DMSO. All stock solutions were stored at −20 °C until used. Test concentrations of compounds were prepared by diluting stock solution with 10 mM Tris–HCl pH 8.0 and evaluated in triplicate. Compounds were added directly to the reaction mixtures except for NEM that was pre-incubated with enzyme for 30 min on ice before addition to the reaction mixture. Polymerase activity assays were conducted as described above.

[1] = system: Plasmodium falciparum K1 strain; assay: Inhibition of intra-erythrocytic P. falciparum growth in culture (SYBR Green I-based assay); type: cell-based; conditions: K1 strain (chloroquine- and pyrimethamine-resistant), in vitro growth, triplicate
Method: Plasmodium falciparum strain K1, a chloroquine- and pyrimethamine-resistant strain from Thailand [28] was cultivated in RPMI 1640 medium (Invitrogen™, CA, USA) supplemented with 10 % human serum and human red blood cell (RBC) at 37 °C under an atmosphere of 5 % CO2. Plasmodium falciparum cultures containing mostly trophozoite and schizont stages were harvested when parasitaemia was >10 % by centrifugation at 500×g for 10 min at 25 °C.
Plasmodium falciparum K1 strain was synchronized at ring stage using 5 % D-sorbitol treatment and then mixed with culture medium containing RPMI 1640 medium supplement with 10 % human serum. Twofold serial dilutions of each test compound were evaluated in triplicate. Parasite growth was determined by a SYBR Green I-based assay. Dose–response curves and IC50 values were obtained using SigmaPlot 12.0.

[2] = parameters: method as in PMID 21684746; conditions: IP dose of 60 mg/kg; cited from earlier work
[3] = parameters: method as in PMID 21684746; conditions: potent antibiotic; cited from earlier work
[4] = recombinant PfPolδ-cat DNA polymerase activity, activated CT-DNA, 1 h at 37 °C, triplicate, read-out: IC50 PfPolδ-cat

Row | SMILES | IC50 (PfPolδ-cat; [4]) [µM] | IC50 ([1]; Plasmodium falciparum) [µM] | other results
1 | Nc1nc(Cl)cc(Nc2ccc(Cl)c(Cl)c2)n1 [2-amino-4-chloro-6-(3′,4′-dichloroanilino)pyrimidine] | 104 ± 5.6 | 3.8 ± 0.3 | –
2 | Nc1nc(Cl)cc(Nc2cc(Cl)cc(Cl)c2)n1 [2-amino-4-chloro-6-(3′, 5′-dichloroanilino)pyrimidine] | 185 ± 7.7 | 34.4 ± 0.4 | –
3 | CC(=O)OCCCCCn1cnc2nc(NCc3ccc(Cl)c(Cl)c3)[nH]c(=O)c21 [7-acetoxypentyl-DCBG, 7-acetoxypentyl-(3,4-dichlorobenzyl)guanine] | 55 ± 3.4 | – | mice survived after treatment [2]: 80%; MIC [3]: 1.25 µg/mL (≈ 2.85 µM); IC50 [1]: 4.1 ± 0.2 µM
4 | Nc1nc2c(ncn2COCCOP(=O)(O)OP(=O)(O)OP(=O)(O)O)c(=O)[nH]1 [Acyclovir triphosphate] | – | 347 ± 8.3 | –
5 | CCCCc1ccc(Nc2nc3c(ncn3C3CC(O)C(COP(=O)(O)OP(=O)(O)C(=O)P(=O)(O)O)O3)c(=O)[nH]2)cc1 (centres unmarked) [BuPdGMPPCOP, N^2-(4-butylphenyl)-2′-deoxyguanosine 5′-(P^2,P^3-carbonyltriphosphonate)] | – | – | IC50 PfPolδ-cat (Inactive = <20 % inhibition at 100 μM) (PfPolδ-cat; recombinant PfPolδ-cat DNA polymerase activity, 100 μM compound): Inactive^a; IC50 [1]: 173 ± 2.7 µM
6 | CCCCc1ccc(Nc2nc3c(ncn3[C@H]3C[C@H](O)[C@@H](COP(=O)(O)OP(=O)(O)OP(=O)(O)O)O3)c(=O)[nH]2)cc1 [BuPdGTP, N^2-(4-butylphenyl)-2′-deoxyguanosine 5′-triphosphate] | 38 ± 1.7 | 85.6 ± 3.7 | –
7 | O=c1[nH]c(NCc2ccc(Cl)c(Cl)c2)nc2nc[nH]c12 [DCBG, N^2-(3,4-dichlorobenzyl)guanine] | – | 8.8 ± 0.5 | –
8 | CCCCCCNc1nc2c(ncn2[C@H]2C[C@H](O)[C@@H](COP(=O)(O)OP(=O)(O)OP(=O)(O)O)O2)c(=O)[nH]1 [HexdGTP, N^2-hexyl-2′-deoxyguanosine 5′-triphosphate] | – | 86.4 ± 0.2 | –
9 | O=c1[nH]c(NCc2ccc(Cl)c(F)c2)nc2nc[nH]c12 [N^2-(3-fluoro,4-chlorobenzyl)guanine] | – | 7.4 ± 0.3 | –
10 | C[C@@]1(CO)[C@H](O)CC[C@@]2(C)[C@H]1CC[C@H]1C[C@@H]3C[C@@]12CC[C@]3(O)CO [aphidicolin, reference compound] | – | – | IC50 (PfPolδ-cat): 11.8 µM
